# Patent publication US11708367B2, “Compounds for the treatment of kinase-dependent disorders” (Exelixis, Inc., priority 2018, dated 2023)
# Assays:
# Assay type in all cases: cell-based
# AXL = AXL (Homo sapiens (Human), UniProt P30530); experiment: AXL autophosphorylation ELISA in A-172 cells; details: cellular, Gas6-stimulated, phospho-AXL ELISA
# Procedure, shortened: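 A-172 glioblastoma cells, serum-starved 24 h, got 8-point compound dilutions (0.3% DMSO) for 1 h, then 1 μg/mL human Gas6 for 15 min. Phospho-AXL in lysates was quantified by ELISA against a standard, normalized between DMSO and reference-inhibitor controls; IC50 by 4-parameter logistic fit.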
# Mer = Mer (Homo sapiens (Human), UniProt Q12866); experiment: Mer autophosphorylation ELISA in transient transfected 293A cells; details: cellular, MERTK-transfected 293A cells, phospho-Mer ELISA
# Chain of Mer (Q12866 21-999): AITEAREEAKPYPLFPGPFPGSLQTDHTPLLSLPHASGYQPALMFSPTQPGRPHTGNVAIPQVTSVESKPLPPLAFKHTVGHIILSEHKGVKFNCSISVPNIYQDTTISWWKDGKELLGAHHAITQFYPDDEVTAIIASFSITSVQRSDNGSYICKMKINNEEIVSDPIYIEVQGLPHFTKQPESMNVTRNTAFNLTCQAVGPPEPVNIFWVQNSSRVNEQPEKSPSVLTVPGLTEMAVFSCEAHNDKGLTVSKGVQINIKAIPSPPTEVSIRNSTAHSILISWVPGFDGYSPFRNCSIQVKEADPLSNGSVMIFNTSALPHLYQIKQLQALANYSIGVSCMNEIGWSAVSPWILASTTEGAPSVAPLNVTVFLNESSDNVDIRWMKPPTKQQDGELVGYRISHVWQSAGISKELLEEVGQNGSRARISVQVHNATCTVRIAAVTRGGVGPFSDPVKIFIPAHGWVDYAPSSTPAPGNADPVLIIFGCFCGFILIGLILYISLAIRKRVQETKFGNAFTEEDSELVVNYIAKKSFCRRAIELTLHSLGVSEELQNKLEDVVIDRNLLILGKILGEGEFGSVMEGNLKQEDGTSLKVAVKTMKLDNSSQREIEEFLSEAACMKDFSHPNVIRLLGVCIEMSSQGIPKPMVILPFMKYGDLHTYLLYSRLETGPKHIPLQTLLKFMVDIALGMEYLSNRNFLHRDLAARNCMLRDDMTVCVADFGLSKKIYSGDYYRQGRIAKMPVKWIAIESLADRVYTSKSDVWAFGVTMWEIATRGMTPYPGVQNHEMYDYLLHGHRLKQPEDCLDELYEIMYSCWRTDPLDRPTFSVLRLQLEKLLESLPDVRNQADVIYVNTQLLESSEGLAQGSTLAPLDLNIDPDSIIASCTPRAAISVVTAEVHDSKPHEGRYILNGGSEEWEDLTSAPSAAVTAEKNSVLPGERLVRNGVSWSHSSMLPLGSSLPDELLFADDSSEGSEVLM
# Protocol: 293A cells (Thermo Fisher #R70507) were seeded at 1.5×10^6 cells/well onto 100 mm dish (Greiner #664169), in DMEM (Thermo Fisher #11995-040) containing 10% FBS (Thermo Fisher #26140-079), 1% MEM NEAA (Thermo Fisher #11140-050), 1% GlutaMax (Thermo Fisher #35050-061), and 1% Penicillin Streptomycin (Thermo Fisher #15140-122). 293A cells were incubated at 37° C., 5% CO2 for 24 h and then transfected with 6 μg MERTK DNA (Genecopoeia #EX-Z8208-M02) using TransIT LT1 transfection reagent (Mirus-Bio #MIR2305). After 24 h incubation, the transfected 293A cells were seeded at 1×10^5 cells/well onto 96-well plates (Corning #3904) in DMEM growth medium overnight. Test compounds were serially diluted to produce an 8-point dose curve in fresh serum-free medium to a final concentration of 0.3% DMSO (vehicle) and added to the cells and incubated for 1 h. Cells were then immediately lysed with 150 μL of cold IX lysis buffer [20 mM Tris, 137 mM sodium chloride, 2 mM EDTA, 10% glycerol, 1% NP-40 alternative, 1 mM activated sodium orthovanadate, 1 mM PefaBloc SC (Sigma-Aldrich #11429868001), protease/phosphatase inhibitor tablet (Thermo Fisher #A32959)]. Lysates were clarified by centrifugation and 50 μL/well added into the human phospho-Mer DuoSet IC ELISA (R&D Systems #DYC2579-2). Assay was performed according to manufacturer's instructions and sample phospho-Mer concentrations were extrapolated using human phospho-Mer control (R&D Systems #841793) as a standard. Positive control wells (100% activity) contained DMSO-treated cell lysates. Negative control wells (0% activity) contained reference inhibitor-treated cell lysates. IC50 values were calculated by nonlinear regression analysis using a 4-parameter logistic curve fit in ActivityBase XE (IDBS).
# Met = Met (Homo sapiens (Human), UniProt P08581); experiment: Met autophosphorylation ELISA in PC-3 cells; details: cellular, HGF-stimulated, phospho-Met ELISA, read-out: c-Met IC50
# Chain of Met (P08581 25-1390): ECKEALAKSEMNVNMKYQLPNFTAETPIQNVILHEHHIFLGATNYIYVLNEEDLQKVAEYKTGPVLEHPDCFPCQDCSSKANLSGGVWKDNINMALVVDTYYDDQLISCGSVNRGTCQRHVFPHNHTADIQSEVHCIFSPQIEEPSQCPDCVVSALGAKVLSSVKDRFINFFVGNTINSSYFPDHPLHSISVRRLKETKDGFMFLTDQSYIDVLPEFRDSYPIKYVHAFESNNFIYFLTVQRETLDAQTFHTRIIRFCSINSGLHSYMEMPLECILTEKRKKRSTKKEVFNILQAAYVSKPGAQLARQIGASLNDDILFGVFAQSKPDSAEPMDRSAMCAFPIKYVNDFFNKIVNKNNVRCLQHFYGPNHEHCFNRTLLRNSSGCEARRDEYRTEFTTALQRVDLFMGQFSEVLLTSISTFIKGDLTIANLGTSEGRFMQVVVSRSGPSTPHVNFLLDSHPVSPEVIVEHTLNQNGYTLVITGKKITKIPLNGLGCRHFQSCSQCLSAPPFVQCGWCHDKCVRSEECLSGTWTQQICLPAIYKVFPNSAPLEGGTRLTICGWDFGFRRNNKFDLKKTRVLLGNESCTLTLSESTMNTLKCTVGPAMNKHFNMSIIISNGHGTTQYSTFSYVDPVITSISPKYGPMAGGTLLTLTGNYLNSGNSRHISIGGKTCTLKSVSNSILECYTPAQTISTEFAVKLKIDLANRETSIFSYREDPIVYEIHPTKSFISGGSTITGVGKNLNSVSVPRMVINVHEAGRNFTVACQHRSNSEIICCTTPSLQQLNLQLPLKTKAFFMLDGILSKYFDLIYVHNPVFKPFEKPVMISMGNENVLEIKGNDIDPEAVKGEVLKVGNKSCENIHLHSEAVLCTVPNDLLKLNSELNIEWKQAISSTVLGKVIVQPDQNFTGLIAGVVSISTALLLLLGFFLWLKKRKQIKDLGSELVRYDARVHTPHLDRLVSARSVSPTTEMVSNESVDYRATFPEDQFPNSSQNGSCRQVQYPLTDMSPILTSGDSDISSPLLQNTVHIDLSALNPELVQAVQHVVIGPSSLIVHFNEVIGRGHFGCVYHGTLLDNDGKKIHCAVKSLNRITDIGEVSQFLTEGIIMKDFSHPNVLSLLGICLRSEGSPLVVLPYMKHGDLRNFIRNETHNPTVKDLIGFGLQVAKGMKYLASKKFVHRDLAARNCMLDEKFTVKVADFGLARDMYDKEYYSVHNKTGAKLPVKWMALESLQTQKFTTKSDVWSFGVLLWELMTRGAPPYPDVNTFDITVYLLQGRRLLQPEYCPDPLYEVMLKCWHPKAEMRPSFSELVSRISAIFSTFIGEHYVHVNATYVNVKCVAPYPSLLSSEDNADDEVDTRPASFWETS
# Procedure, shortened: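 Serum-starved PC-3 cells treated 1 h with compound (8-point series, 0.3% DMSO), then stimulated 10 min with 100 ng/mL HGF. Phospho-Met (panTyr) quantified in lysates by sandwich ELISA; IC50 from 4-parameter logistic fit against DMSO and reference-inhibitor controls.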
# KDR = KDR (Homo sapiens (Human), UniProt P35968); experiment: KDR autophosphorylation ELISA in HUVEC cells; details: cellular, VEGF165-stimulated, phospho-KDR ELISA
# Chain of KDR (P35968 20-1356): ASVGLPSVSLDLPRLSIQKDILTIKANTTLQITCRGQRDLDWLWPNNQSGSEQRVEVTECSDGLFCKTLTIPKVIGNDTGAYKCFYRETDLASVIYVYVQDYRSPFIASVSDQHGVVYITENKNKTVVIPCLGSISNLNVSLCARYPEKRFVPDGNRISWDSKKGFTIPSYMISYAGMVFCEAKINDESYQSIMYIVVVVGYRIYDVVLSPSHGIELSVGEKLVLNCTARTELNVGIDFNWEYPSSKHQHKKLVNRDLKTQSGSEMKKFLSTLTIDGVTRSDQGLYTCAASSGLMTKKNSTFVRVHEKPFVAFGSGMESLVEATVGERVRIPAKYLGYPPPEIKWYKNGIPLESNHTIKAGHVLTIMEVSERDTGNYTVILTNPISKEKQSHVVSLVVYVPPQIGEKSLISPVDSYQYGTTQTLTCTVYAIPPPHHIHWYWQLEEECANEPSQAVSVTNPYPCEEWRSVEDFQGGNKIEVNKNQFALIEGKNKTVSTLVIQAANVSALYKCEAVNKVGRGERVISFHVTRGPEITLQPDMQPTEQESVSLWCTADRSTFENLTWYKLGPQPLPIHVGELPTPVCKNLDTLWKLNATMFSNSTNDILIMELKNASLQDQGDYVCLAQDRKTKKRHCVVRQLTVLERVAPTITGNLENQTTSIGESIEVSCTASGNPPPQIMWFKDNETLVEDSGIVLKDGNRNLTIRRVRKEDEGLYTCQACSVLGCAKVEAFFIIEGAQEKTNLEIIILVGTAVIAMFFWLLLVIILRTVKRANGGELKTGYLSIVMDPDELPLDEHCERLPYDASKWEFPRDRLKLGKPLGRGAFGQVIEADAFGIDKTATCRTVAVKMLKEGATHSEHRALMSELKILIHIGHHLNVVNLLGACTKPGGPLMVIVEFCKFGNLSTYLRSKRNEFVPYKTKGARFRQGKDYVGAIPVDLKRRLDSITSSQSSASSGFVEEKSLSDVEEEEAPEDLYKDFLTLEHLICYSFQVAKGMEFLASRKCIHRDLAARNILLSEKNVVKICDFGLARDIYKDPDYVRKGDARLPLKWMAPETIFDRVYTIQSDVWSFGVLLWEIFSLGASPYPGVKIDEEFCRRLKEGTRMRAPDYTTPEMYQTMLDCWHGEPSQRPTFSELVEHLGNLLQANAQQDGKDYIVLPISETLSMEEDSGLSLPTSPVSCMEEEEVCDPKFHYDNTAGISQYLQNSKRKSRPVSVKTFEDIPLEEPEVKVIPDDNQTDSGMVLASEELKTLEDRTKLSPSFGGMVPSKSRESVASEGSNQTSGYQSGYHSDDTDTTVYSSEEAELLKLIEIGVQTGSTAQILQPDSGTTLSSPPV
# Procedure, shortened: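 Serum-starved (24 h) HUVECs were pre-treated with compound (8-point dose curve, 0.3% DMSO final) for 1 h, then stimulated with 100 ng/mL human VEGF165 for 5 min. Lysate phospho-KDR was quantified by ELISA against a phospho-KDR standard. IC50 came from a 4-parameter logistic fit, normalized to stimulated-DMSO (100%) and unstimulated (0%) controls.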
# Chain of AXL (P30530 26-894): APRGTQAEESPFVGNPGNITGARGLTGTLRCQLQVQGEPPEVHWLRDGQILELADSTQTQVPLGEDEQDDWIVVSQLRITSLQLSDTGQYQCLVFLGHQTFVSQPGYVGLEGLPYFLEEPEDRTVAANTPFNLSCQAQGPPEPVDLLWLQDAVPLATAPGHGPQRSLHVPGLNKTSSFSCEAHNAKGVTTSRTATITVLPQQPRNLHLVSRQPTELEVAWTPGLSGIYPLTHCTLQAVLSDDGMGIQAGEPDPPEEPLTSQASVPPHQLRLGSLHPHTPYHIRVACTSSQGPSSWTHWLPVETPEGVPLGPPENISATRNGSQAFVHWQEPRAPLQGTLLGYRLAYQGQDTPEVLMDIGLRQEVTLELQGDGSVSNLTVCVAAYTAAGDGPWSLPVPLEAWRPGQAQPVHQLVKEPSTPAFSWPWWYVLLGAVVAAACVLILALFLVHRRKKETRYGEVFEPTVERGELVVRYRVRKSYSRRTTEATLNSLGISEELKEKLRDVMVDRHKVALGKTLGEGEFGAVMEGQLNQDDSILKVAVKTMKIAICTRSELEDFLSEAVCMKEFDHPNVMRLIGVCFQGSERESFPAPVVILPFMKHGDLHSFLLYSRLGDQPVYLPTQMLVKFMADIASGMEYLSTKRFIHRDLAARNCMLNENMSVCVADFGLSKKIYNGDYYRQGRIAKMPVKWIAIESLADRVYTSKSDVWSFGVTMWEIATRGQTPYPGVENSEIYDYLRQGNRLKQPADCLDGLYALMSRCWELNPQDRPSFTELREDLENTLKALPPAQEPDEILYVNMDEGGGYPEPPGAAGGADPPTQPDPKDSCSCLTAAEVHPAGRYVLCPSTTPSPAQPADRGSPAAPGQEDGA
IC50 (AXL) [nM],IC50 (Mer) [nM],IC50 (Met) [nM],IC50 (KDR) [nM],Structure (SMILES)
≤ 10,≤ 10,≤ 10,≤ 10,"COCCOc1cc2nccc(Oc3ccc(NC(=O)C4(C(=O)Nc5ccc(F)cc5)CC4)cc3F)c2nc1OC [Compound 150, 1-N′-[3-fluoro-4-[[6-methoxy-7-(2-methoxyethoxy)-1,5-naphthyridin-4-yl]oxy]phenyl]-1-N-(4-fluoro-phenyl)cyclopropane-1,1-dicarboxamide]"
10 to 100,10 to 100,10 to 100,≤ 10,"COCCOc1cc2nccc(Oc3ccc(NC(=O)C4(C(=O)Nc5ccc(F)cc5)CC4)cc3Cl)c2nc1OC [Compound 151, 1-N′-[3-chloro-4-[[6-methoxy-7-(2-methoxyethoxy)-1,5-naphthyridin-4-yl]oxy]phenyl]-1-N-(4-fluoro-phenyl)cyclopropane-1,1-dicarboxamide]"
